We go through 9 compounds from ChEMBL document CHEMBL1201862, “PubChem BioAssay data set” (2004).

Calls of active or inactive are those of the source.

What is called AC50 is the concentration at which the activity in the assay is half-maximal. The term EC50 denotes the concentration that produces a half-maximal response. As a reminder, the IC50 is the point on the concentration scale where inhibition reaches its midpoint. For orientation: CC50 means the concentration at which the toxic effect on the cells reaches its halfway point.

Test [1] deals with T1, Acyl-homoserine lactone acylase PvdQ (Pseudomonas aeruginosa (strain LESB58), UniProt Q9I194).
T1 sequence (Q9I194 whole entry): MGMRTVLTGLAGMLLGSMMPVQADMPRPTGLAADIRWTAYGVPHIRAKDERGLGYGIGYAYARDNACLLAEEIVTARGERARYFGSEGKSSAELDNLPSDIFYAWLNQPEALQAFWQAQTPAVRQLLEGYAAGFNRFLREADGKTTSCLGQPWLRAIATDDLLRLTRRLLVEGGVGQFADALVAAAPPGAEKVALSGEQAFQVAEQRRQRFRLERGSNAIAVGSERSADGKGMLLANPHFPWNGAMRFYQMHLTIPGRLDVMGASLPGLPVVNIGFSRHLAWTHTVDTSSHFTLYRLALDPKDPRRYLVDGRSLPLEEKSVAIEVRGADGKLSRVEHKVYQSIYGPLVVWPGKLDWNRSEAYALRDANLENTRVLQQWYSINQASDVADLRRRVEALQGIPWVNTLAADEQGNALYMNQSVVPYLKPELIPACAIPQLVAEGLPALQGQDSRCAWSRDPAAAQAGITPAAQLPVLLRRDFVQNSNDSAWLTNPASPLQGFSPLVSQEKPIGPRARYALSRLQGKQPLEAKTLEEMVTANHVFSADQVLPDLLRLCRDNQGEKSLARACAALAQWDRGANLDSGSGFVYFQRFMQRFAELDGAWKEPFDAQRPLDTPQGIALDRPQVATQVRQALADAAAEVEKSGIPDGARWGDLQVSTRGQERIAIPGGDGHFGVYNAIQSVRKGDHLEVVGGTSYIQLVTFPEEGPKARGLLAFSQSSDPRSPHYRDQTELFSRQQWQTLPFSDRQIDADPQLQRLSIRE
Description: P. aeruginosa PvdQ acylase inhibitors, dose response, biochemical, fluorescence, plate reader and imaging, cherry-picks (AID 493231).

Test [2] in a line: Luminescence Cell-Based Dose Retest to Confirm Inhibitors of Cancer Stem Cells. [Related pubchem assays (depositor defined):AID2717, AID2721]. Type of test: functional. To be noted: Homo sapiens.
The next test has as its target T2, Streptokinase A (Streptococcus pyogenes serotype M1, UniProt P10520).
T2 sequence (P10520 whole entry): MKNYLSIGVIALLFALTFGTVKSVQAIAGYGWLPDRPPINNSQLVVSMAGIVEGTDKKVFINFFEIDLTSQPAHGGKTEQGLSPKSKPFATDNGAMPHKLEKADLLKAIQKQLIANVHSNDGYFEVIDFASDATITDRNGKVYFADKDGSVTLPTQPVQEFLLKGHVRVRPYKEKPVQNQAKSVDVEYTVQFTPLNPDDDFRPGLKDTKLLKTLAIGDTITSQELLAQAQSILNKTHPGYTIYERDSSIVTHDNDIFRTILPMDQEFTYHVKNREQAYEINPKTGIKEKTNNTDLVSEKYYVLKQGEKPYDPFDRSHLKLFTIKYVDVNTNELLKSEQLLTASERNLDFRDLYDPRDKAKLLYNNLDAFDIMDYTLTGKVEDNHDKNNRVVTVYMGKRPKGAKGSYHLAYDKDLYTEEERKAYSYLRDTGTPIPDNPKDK
Description: S. pyogenes streptokinase expression inhibitors, potency, dose response, plasminogen activation absorbance, OD405 (AID 1914).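 Further: secreted streptokinase activity via plasminogen activation per viability signal from cell pellet.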 The class given is functional, Streptococcus pyogenes M1 GAS.

Test [3] relates to Streptococcus sp. 'group A'. Description: growth inhibition of control SK(-) GAS strain, dose response, counter-screen for streptokinase expression inhibitor project, luminescence, kanamycin, BacTiterGlo, confirmation (AID 1900). The class given is functional, organism-based. In general terms: Counterscreens check selectivity or assay interference.
The subject of the next test is Streptococcus. Description: Group A Streptococcus viability loss, dose response, counter-screen for streptokinase expression inhibitor project, luminescence, BacTiterGlo (AID 1915).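 Further: potency for reduction of bacterial viability or growth.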 The class given is functional, organism-based.
Test [4] addresses G-protein coupled receptor 35 (Homo sapiens, UniProt Q9HC97). Description: GPR35 antagonists blocking zaprinast-driven arrestin recruitment, primary screen, imaging, U2OS, beta-arrestin-GFP, zaprinast agonist (AID 2058).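 Further: antagonist potency meaning inhibition of agonist-induced arrestin redistribution.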 The class given is functional. A general note: Recruitment of arrestin is a read-out of receptor activation apart from second messengers.
Test [5] addresses DNA damage-inducible transcript 3 protein (Mus musculus, UniProt P35639). Type of test: functional, Cricetulus griseus.
Test [6] concerns the target T3, Aryl hydrocarbon receptor (Homo sapiens, UniProt P35869).
T3 sequence (P35869 whole entry): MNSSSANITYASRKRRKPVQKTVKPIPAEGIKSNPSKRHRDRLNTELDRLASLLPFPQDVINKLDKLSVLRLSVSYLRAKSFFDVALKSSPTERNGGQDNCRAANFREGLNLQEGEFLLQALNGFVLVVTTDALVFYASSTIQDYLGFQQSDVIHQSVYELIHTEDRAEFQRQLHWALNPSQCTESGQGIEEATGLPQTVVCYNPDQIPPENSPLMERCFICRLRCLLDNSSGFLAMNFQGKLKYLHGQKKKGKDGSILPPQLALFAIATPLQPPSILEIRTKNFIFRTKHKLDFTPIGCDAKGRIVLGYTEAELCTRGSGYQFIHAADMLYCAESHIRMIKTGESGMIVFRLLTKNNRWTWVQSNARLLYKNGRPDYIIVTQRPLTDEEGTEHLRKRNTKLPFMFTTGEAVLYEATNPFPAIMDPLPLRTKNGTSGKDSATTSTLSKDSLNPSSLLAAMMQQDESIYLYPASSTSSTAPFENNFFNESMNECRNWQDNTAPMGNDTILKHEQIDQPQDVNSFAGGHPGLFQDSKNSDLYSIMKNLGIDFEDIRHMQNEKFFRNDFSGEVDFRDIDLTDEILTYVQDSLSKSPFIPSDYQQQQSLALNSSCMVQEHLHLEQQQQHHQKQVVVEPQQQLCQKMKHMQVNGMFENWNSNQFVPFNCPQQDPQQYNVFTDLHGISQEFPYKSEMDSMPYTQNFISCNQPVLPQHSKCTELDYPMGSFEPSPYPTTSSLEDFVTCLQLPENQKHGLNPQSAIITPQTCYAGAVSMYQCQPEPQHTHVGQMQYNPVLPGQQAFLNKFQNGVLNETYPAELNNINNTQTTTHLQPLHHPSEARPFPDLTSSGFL
Description: Luminescence-based cell-based high throughput dose response assay for activators of the Aryl Hydrocarbon Receptor (AHR). [Related pubchem assays: 2796 (Primary screen (AHR activators in singlicate)), 2845 (Confirmation screen (AHR activators in triplicate)), 434939 (Counterscreen (PXR activators in triplicate)), 2804 (Summary (AHR activators))]. The class given is ADME.

Test [7] deals with DNA dC->dU-editing enzyme APOBEC-3G (Homo sapiens, UniProt Q9HC16). Description: Dose Response confirmation of small molecule APOBEC3G DNA Deaminase Inhibitors via a fluorescence-based single-stranded DNA deaminase assay. [Related pubchem assays (depositor defined):AID493012, AID493028]. The class given is functional.
DNA dC->dU-editing enzyme APOBEC-3G, sequence (Q9HC16 whole entry): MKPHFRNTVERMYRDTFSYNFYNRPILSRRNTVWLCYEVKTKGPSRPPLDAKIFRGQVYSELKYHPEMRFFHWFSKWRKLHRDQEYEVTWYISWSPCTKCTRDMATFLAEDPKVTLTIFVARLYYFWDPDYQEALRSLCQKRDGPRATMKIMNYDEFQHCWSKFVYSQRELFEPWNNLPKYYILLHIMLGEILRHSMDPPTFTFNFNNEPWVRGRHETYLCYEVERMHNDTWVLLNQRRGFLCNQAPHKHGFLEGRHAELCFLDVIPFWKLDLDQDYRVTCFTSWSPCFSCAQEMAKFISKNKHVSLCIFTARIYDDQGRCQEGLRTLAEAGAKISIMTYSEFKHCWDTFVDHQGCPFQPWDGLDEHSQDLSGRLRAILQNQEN
In test [8] the target is DNA dC->dU-editing enzyme APOBEC-3A (Homo sapiens, UniProt P31941). Description: APOBEC3A DNA deaminase inhibitors, dose response, biochemical (AID 504722). The class given is functional.
DNA dC->dU-editing enzyme APOBEC-3A, sequence (P31941 whole entry): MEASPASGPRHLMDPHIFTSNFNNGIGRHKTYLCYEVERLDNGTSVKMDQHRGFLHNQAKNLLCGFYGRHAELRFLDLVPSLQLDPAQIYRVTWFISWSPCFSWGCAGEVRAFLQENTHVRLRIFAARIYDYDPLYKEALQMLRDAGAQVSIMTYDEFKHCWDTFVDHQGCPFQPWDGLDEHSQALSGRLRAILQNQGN
Test [9] can be described thus: cytotoxicity toward NIH3T3 fibroblasts, dose response, counter-screen, cell-based, ATP luminescence, mouse fibroblasts (AID 2010).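 Further: cells exposed to compound for about 90 hours before reading.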 Type of test: functional.
The next test is described as follows: cells. Type of test: functional.
Test [10] is described as follows: inhibitors of intracellular T. cruzi replication, confirmation, NIH3T3 host cells, beta-gal luminescence (AID 2044).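 Further: intracellular parasites grown in NIH/3T3 mouse fibroblasts as host cells; luminescent beta-galactosidase reporter signal from transgenic T. cruzi replicating inside host cells; inhibitors lower the luminescence signal.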 The class given is functional, cell-based.
Test [11] is described as follows: HepG2 cell cytotoxicity, dose response, cytotoxicity control for non-replicating M. tuberculosis project (AID 489018). Type of test: functional. To be noted: Mycobacterium tuberculosis.
The next test concerns the target Beta-galactosidase (Escherichia coli, UniProt Q8VNN2). Description: PubChem AID 485352. Type of test: functional.
Test [12] in a line: Vero E6 cell cytotoxicity, dose response, cytotoxicity control for non-replicating M. tuberculosis project, secondary assay (AID 492998). Type of test: functional, VeroE6. The conditions noted are these: Vero C1008.
Test [13] addresses T4, Type-1 angiotensin II receptor (Homo sapiens, UniProt P30556).
T4 sequence (P30556 whole entry): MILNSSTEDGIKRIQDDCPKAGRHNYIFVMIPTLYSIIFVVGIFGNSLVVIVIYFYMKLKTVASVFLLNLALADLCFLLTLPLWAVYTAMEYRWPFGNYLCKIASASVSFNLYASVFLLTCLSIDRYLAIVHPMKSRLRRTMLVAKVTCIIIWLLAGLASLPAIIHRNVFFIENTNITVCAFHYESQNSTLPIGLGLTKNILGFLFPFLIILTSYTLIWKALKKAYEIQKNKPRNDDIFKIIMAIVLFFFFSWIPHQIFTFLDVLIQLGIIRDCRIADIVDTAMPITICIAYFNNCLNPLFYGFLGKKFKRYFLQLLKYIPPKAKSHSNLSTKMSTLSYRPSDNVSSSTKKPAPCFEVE
Description: AT1 receptor antagonists, dose response, selectivity assay for APJ receptor antagonist project, cell-based, uHTS hits (AID 463214).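 Further: antagonist potency against angiotensin II stimulated AT1 response.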 The class given is functional.

The nature of test [14]: THP-1 cell cytotoxicity, dose response, cytotoxicity control for non-replicating M. tuberculosis project (AID 489025). The class given is functional.
Test [15] in a line: growth suppression of PTEN-null colon cells, dose response, cell-based, HCT116 PTEN knockout (AID 1047).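 Further: HCT116 colon tumor cells with PTEN knocked out; cells exposed to compound for 60 hours before readout; potency for loss of cell viability measured by luminescence.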 Type of test: functional.
A short description of test [16]: growth suppression of beta-catenin-knockout colon cells, dose response, cell-based, HCT116, human colon tumor (AID 1045).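 Further: HCT116 colon tumor cells with beta catenin knocked out; cells exposed to compound for 60 hours.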 Type of test: functional.
Test [17] concerns the target Heat shock protein HSP 90-alpha (Homo sapiens, UniProt P07900). The class given is functional, organism-based.
The next test has as its target Trypsin (Sus scrofa, UniProt P00761). Description: porcine trypsin inhibitors, dose response, selectivity assay for Rce1 protease inhibitor project, biochemical, quenched peptide fluorescence, cherry-pick (AID 488789).
For a further test, the target named is T5, CAAX prenyl protease 2 (Saccharomyces cerevisiae S288c, UniProt Q03530).
T5 sequence (Q03530 whole entry): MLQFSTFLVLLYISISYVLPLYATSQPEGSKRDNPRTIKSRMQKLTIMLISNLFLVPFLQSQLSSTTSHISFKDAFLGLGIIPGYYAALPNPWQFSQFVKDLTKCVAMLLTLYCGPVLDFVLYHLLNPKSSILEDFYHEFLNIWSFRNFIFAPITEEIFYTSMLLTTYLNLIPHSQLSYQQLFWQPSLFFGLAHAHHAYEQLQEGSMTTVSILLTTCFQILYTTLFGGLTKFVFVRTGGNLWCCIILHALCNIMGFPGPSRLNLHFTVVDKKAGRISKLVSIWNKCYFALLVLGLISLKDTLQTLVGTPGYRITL
The class given is biochemical.

G-protein coupled receptor 35, sequence (Q9HC97 whole entry): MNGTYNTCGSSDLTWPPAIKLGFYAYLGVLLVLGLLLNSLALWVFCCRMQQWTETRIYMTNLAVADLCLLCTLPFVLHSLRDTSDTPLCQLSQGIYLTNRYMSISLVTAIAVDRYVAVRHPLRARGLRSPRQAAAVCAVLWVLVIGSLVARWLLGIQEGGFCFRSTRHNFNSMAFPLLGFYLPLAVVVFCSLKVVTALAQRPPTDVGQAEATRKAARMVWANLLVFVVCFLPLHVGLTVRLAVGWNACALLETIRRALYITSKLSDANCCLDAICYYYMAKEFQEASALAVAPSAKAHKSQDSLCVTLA
DNA damage-inducible transcript 3 protein, sequence (P35639 whole entry): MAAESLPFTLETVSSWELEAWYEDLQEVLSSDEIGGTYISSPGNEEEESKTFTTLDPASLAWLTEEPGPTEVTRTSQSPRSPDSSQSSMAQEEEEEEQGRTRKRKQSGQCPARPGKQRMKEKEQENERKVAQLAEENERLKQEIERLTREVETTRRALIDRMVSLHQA
Beta-galactosidase, sequence (Q8VNN2 whole entry): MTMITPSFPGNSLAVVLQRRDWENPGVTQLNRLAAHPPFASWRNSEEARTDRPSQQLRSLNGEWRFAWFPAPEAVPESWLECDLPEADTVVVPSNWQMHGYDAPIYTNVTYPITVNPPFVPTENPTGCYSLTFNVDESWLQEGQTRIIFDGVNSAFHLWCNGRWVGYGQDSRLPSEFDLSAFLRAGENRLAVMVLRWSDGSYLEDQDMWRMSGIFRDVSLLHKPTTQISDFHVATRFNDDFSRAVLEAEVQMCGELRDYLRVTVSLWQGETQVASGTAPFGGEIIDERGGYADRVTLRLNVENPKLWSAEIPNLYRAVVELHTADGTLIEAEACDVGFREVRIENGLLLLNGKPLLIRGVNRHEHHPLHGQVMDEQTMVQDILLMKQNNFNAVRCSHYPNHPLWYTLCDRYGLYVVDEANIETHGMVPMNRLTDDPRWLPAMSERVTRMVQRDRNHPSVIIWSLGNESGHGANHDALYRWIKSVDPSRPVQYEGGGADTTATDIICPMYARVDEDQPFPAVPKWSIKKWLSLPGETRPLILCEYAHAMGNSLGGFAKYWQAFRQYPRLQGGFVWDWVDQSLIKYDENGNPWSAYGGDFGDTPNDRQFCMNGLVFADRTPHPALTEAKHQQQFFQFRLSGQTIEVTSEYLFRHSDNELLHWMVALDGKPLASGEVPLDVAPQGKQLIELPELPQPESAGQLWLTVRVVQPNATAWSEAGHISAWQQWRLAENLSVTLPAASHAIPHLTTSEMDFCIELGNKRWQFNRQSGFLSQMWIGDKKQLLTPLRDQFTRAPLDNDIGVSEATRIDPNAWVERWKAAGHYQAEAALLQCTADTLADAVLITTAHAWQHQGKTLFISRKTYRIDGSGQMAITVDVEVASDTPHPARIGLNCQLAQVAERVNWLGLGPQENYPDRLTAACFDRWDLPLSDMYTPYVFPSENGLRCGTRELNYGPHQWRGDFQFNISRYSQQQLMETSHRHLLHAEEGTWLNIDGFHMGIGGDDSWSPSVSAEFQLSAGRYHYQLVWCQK
Trypsin, sequence (P00761 whole entry): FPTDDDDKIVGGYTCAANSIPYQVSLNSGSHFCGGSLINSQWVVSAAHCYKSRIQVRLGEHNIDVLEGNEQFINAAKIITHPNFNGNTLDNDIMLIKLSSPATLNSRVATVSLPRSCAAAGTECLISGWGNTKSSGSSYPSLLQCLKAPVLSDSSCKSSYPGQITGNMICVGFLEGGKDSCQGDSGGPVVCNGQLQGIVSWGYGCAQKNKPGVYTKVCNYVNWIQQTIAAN

For `CCC(C)NS(=O)(=O)c1ccc(OC)c(Cl)c1Cl` (stereo not drawn), the AC50 in [1] was 10 µM (active).

`CC(NS(=O)(=O)OCC(Cl)(Cl)Cl)c1ccc(C(C)(C)C)cc1` (stereo not drawn): the AC50 in test [2] was 2.77 µM (active). The EC50 was 4.06 µM (active) on Streptokinase A, 4.61 µM (active) in [3] and 12.8 µM (active) in the test with Streptococcus. The IC50 in test [4] was 1.46 µM (active).

On to `CCOC(=O)Cc1cc(-c2ccc(O)cc2)nc2ccc3ccccc3c12`, for which the “Absolute IC50 (CHOP)” value in test [5] was 10 µM. In test [6], the EC50 was 1.47 µM (active).

`Cc1ccc(S(=O)(=O)NCc2ccc3c(c2)OCO3)cc1C`: the AC50 in [1] was 70.4 µM (active).

As to `CCc1nnc(S)n1/N=C/c1c(O)ccc2ccccc12`, the IC50 was 4 µM (active) in [7] and > 100 µM (inactive) in test [8].

For `N=C1S/C(=C\c2ccco2)C(=O)N1c1nccs1`, the EC50 is > 30 µM (not active) in [9]; 3.66 µM (active) in test [3]; 2.11 µM (active) in test [10]; 9.61 µM (active) in the test on Streptococcus; > 40 µM (inactive) at Beta-galactosidase. Further, the IC50 in the test “cells” is 0.2 µM (active); in [13] it was 7.86 µM (active). The CC50 in [11] is > 20 µM (active); in test [12], 9.33 µM (active); in test [14], 15.7 µM (active).

`Oc1ccc(F)cc1-c1cc(-c2ccc3c(c2)OCCO3)[nH]n1`: the EC50 is 46.6 µM (active) in [15] and 25.9 µM (active) in [16]. Also, in test [1], the AC50 is > 100 µM (inactive).

As for `CN(C)/C=C/C(=O)c1ccc(N2CCN(c3ncc(C(F)(F)F)cc3Cl)CC2)cc1`, the concentration at half-maximal activity (AC50) in test [17] is 4.29 µM (active). Further, the IC50 in test [4] is 0.53 µM (active).

In the case of `c1ccc(-n2nnnc2SCc2cn3cccnc3n2)cc1`, the results for the AC50 at Trypsin and on CAAX prenyl protease 2 were 18.6 µM (active) and 10.5 µM (active), respectively.
